“And” between values parts separate entries of the source, which are not always exact repeats. Equal entries are not always repeated. Where two headings read alike, the source gives them in different places.
Tests used:
[1] = Pharmacokinetics: plasma, brain, CSF
CB1 (rCB1) [2] = biological target: T1, CB1 (rCB1) (Rattus norvegicus, UniProt P20272); test: Single-point radioligand displacement screen; type: binding; conditions: 10 µM, 1 µM or 300 nM by cell colour (not visible)
hCB1 = hCB1 (Homo sapiens, UniProt P21554); test: bioSensAll ebBRET signaling profiling, hCB1; type: cell-based; parameters: host or cells: HEK293SL cells, transient PEI transfection; conditions: for Barr2+GRK2 hCB1 response: Barr2+GRK2 biosensor; for Gi1 hCB1 / GoB hCB1: single replicate values, FigS6a; for EC50: hCB1 GoB; for Emax: normalized to CP-55,940
CB1 (rCB1) [3] = biological target: T1, CB1 (rCB1); test: Radioligand competition binding, [3H]-CP-55,940, rat brain membranes; conditions: rCB1
mice = test: Catalepsy test, vertical wire mesh; type: in vivo, mouse
Protocol: Thirty min after an i.p. injection of the compounds, mice were placed on a vertical wire mesh and the latency to move all four paws was recorded.

hCB1, sequence (P21554 whole entry): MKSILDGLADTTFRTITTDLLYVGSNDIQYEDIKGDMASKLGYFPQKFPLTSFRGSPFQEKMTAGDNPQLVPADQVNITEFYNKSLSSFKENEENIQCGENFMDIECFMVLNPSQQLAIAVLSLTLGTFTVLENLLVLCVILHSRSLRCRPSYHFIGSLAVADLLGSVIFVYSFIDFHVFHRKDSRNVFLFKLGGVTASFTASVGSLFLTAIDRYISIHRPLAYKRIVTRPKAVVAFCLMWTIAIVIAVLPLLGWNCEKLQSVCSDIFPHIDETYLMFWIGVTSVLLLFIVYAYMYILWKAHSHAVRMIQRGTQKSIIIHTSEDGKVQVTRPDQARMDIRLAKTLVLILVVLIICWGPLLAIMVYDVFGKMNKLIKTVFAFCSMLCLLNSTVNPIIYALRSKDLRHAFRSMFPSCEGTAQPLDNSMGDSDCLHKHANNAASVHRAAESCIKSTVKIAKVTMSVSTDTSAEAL
T1 sequence (P20272 whole entry): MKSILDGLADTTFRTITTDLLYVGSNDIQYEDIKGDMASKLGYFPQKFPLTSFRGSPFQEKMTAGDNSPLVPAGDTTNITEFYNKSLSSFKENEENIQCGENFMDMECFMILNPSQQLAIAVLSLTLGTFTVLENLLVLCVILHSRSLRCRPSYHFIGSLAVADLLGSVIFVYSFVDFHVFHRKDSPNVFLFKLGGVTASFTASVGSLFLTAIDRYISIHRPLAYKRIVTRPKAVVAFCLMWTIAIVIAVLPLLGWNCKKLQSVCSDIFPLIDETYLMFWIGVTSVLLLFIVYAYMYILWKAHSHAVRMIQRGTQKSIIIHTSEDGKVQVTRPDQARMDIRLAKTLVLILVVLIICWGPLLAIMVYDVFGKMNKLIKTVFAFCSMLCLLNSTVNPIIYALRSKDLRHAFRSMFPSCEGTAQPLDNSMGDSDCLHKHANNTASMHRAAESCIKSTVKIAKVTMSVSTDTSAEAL

SMILES: CCCCCCC(C)(C)c1ccc([C@@H]2C[C@H](O)CC[C@H]2CCCO)c(O)c1 [CP55940]
- Brain, Mean ([1]; Time 1 min): 0
- CSF, Mean ([1]; Time 1 min): 0
- Plasma, Mean ([1]; Time 1 min): 0
- Brain, Mean ([1]; Time 5 min): 0
- CSF, Mean ([1]; Time 5 min): 0
- Plasma, Mean ([1]; Time 5 min): 21.5
- Brain, Mean ([1]; Time 15 min): 11.5
- CSF, Mean ([1]; Time 15 min): 0
- Plasma, Mean ([1]; Time 15 min): 47.5
- Brain, Mean ([1]; Time 30 min): 19.2
- CSF, Mean ([1]; Time 30 min): 0
- Plasma, Mean ([1]; Time 30 min): 48.4
- Brain, Mean ([1]; Time 60 min): 17.1
- CSF, Mean ([1]; Time 60 min): 0
- Plasma, Mean ([1]; Time 60 min): 26.7
- Brain, Mean ([1]; Time 120 min): 11.9
- CSF, Mean ([1]; Time 120 min): 0
- Plasma, Mean ([1]; Time 120 min): 10.6
- Brain, Mean ([1]; Time 240 min): 3.09
- CSF, Mean ([1]; Time 240 min): 0
- Plasma, Mean ([1]; Time 240 min): 2.6
- Brain, Mean ([1]; Time 360 min): 0
- CSF, Mean ([1]; Time 360 min): 0
- Plasma, Mean ([1]; Time 360 min): 0
- Brain, Mean ([1]; Time 480 min): 0
- CSF, Mean ([1]; Time 480 min): 0
- Plasma, Mean ([1]; Time 480 min): 0
- Brain, Mean ([1]; Time […]): 0
- CSF, Mean ([1]; Time […]): 0
- Plasma, Mean ([1]; Time […]): 0

SMILES: Cn1nc(-c2nnc(C(C)(C)Oc3ccc(C(F)(F)F)cc3)o2)c2ccccc2c1=O [‘2153]
- % 1H-CP-55,940 displacement (mean) from single point screen (CB1 (rCB1) [2]): 89.82%
- Barr2+GRK2 hCB1 response (hCB1; Log [Compound] (M) -4.22186): 52.3115
- Barr2+GRK2 hCB1 response (hCB1; Log [Compound] (M) -4.63927): 1.898
- Barr2+GRK2 hCB1 response (hCB1; Log [Compound] (M) -5.05788): -31.9237
- Barr2+GRK2 hCB1 response (hCB1; Log [Compound] (M) -5.47381): -49.7918
- Barr2+GRK2 hCB1 response (hCB1; Log [Compound] (M) -5.89285): -32.2428
- Barr2+GRK2 hCB1 response (hCB1; Log [Compound] (M) -6.31878): -30.3284
- Barr2+GRK2 hCB1 response (hCB1; Log [Compound] (M) -6.72585): -23.6278
- Barr2+GRK2 hCB1 response (hCB1; Log [Compound] (M) -7.14267): -46.282
- Barr2+GRK2 hCB1 response (hCB1; Log [Compound] (M) -7.55284): -43.4104
- Barr2+GRK2 hCB1 response (hCB1; Log [Compound] (M) -8): -60.3212
- Barr2+GRK2 hCB1 response (hCB1; Log [Compound] (M) -8.22186): 12.7465
- Barr2+GRK2 hCB1 response (hCB1; Log [Compound] (M) -8.39794): -37.9861
- Barr2+GRK2 hCB1 response (hCB1; Log [Compound] (M) -8.68787): -0.01644
- Barr2+GRK2 hCB1 response (hCB1; Log [Compound] (M) -9.15521): -27.1376
- Barr2+GRK2 hCB1 response (hCB1; Log [Compound] (M) -9.61989): -19.4799
- Barr2+GRK2 hCB1 response (hCB1; Log [Compound] (M) -10.0969): -46.6011
- Barr2+GRK2 hCB1 response (hCB1; Log [Compound] (M) -10.5529): -22.3515
- Barr2+GRK2 hCB1 response (hCB1; Log [Compound] (M) -11.0177): -18.8417
- Barr2+GRK2 hCB1 response (hCB1; Log [Compound] (M) -11.4949): -32.5619
- Barr2+GRK2 hCB1 response (hCB1; Log [Compound] (M) -11.9208): -20.4371
- Barr2+GRK2 hCB1 response (hCB1; Log [Compound] (M) -12.3979): -30.0093
- Barr2+GRK2 hCB1 response (hCB1; Log [Compound] (M) -12.8861): -33.2
- Barr2+GRK2 hCB1 response (hCB1; Log [Compound] (M) -13.3979): 30.2955
- Gi1 hCB1 (hCB1; Log [Compound] (M) -4.22186): 75.7197
- GoB hCB1 (hCB1; Log [Compound] (M) -4.22186): 87.0618
- Gi1 hCB1 (hCB1; Log [Compound] (M) -4.63927): 62.7492
- GoB hCB1 (hCB1; Log [Compound] (M) -4.63927): 68.3981
- Gi1 hCB1 (hCB1; Log [Compound] (M) -5.05788): 53.1046
- GoB hCB1 (hCB1; Log [Compound] (M) -5.05788): 59.4743
- Gi1 hCB1 (hCB1; Log [Compound] (M) -5.47381): 46.6906
- GoB hCB1 (hCB1; Log [Compound] (M) -5.47381): 51.6096
- Gi1 hCB1 (hCB1; Log [Compound] (M) -5.89285): 39.3106
- GoB hCB1 (hCB1; Log [Compound] (M) -5.89285): 42.3906
- Gi1 hCB1 (hCB1; Log [Compound] (M) -6.31878): 39.2789
- GoB hCB1 (hCB1; Log [Compound] (M) -6.31878): 35.0814
- Gi1 hCB1 (hCB1; Log [Compound] (M) -6.72585): 25.5166
- GoB hCB1 (hCB1; Log [Compound] (M) -6.72585): 29.2133
- Gi1 hCB1 (hCB1; Log [Compound] (M) -7.14267): 15.7294
- GoB hCB1 (hCB1; Log [Compound] (M) -7.14267): 18.1713
- Gi1 hCB1 (hCB1; Log [Compound] (M) -7.55284): 6.592
- GoB hCB1 (hCB1; Log [Compound] (M) -7.55284): 8.536
- Gi1 hCB1 (hCB1; Log [Compound] (M) -8): 0.6052
- GoB hCB1 (hCB1; Log [Compound] (M) -8): 0.9487
- Gi1 hCB1 (hCB1; Log [Compound] (M) -8.22186): 7.605
- GoB hCB1 (hCB1; Log [Compound] (M) -8.22186): 6.383
- Gi1 hCB1 (hCB1; Log [Compound] (M) -8.39794): -1.77
- GoB hCB1 (hCB1; Log [Compound] (M) -8.39794): -8.426
- Gi1 hCB1 (hCB1; Log [Compound] (M) -8.68787): -5.112
- GoB hCB1 (hCB1; Log [Compound] (M) -8.68787): -5.249
- Gi1 hCB1 (hCB1; Log [Compound] (M) -9.15521): -4.764
- GoB hCB1 (hCB1; Log [Compound] (M) -9.15521): -4.208
- Gi1 hCB1 (hCB1; Log [Compound] (M) -9.61989): -4.051
- GoB hCB1 (hCB1; Log [Compound] (M) -9.61989): -5.197
- Gi1 hCB1 (hCB1; Log [Compound] (M) -10.0969): -5.445
- GoB hCB1 (hCB1; Log [Compound] (M) -10.0969): -5.371
- Gi1 hCB1 (hCB1; Log [Compound] (M) -10.5529): -5.27
- GoB hCB1 (hCB1; Log [Compound] (M) -10.5529): -5.926
- Gi1 hCB1 (hCB1; Log [Compound] (M) -11.0177): -5.413
- GoB hCB1 (hCB1; Log [Compound] (M) -11.0177): -5.284
- Gi1 hCB1 (hCB1; Log [Compound] (M) -11.4949): -5.698
- GoB hCB1 (hCB1; Log [Compound] (M) -11.4949): -6.413
- Gi1 hCB1 (hCB1; Log [Compound] (M) -11.9208): -5.872
- GoB hCB1 (hCB1; Log [Compound] (M) -11.9208): -5.041
- Gi1 hCB1 (hCB1; Log [Compound] (M) -12.3979): -4.415
- GoB hCB1 (hCB1; Log [Compound] (M) -12.3979): -7.09
- Gi1 hCB1 (hCB1; Log [Compound] (M) -12.8861): -6.854
- GoB hCB1 (hCB1; Log [Compound] (M) -12.8861): -5.666
- Gi1 hCB1 (hCB1; Log [Compound] (M) -13): -4.779
- GoB hCB1 (hCB1; Log [Compound] (M) -13): -5.6139
- Gi1 hCB1 (hCB1; Log [Compound] (M) cell empty): -2.087
- GoB hCB1 (hCB1; Log [Compound] (M) cell empty): -1.829
- pEC50 [95% CI] (hCB1; hCB1 Gi1): 6.0 [5.2 – 6.4]
- EC50 (hCB1): 2000 nM
- EC50 (hCB1; read-out: EC50 [95% CI]): 2060 nM
- Emax (hCB1; read-out: Emax [95% CI], hCB1 Gi1): 89%
- Emax (hCB1; read-out: Emax [95% CI], hCB1 GoB): 109%
- pKi [95% CI] (CB1 (rCB1) [3]): 6.79 [6.5 – 7.0]

SMILES: O=C(CCCN1CCC(O)(c2ccc(Cl)cc2)CC1)c1ccc(F)cc1 [haloperidol, reference compound]
- catalepsy (Figure6c), individual animals (mice; 1 mg/kg dose): 21 and 17 and 11.5 and 18 and 14
- catalepsy, latency to move all four paws (mice; i.p., ‘1350 at 0.2 or 0.5 mg/kg, haloperidol 1.0 mg/kg): induced catalepsy

Reference: PMC11882969 (Nature Communications, 2025)
